The values below come from US20240166629A1, “HETEROCYCLIC COMPOUNDS CAPABLE OF ACTIVATING STING” (Boehringer Ingelheim International GmbH, priority 2022, published 2024).

Series [1] deals with Human STING (hSTING, UNIPROT entry Q86WV6, residues 155-341). Description: Interaction with hSTING by differential scanning fluorimetry (DSF). The class given is binding. The note with it: 100 μM test compound, 5 μM hSTING protein. Here is the method: In DSF, the temperature at which a protein unfolds, also called the melting temperature Tm, is measured by changes in fluorescence of a dye that binds to the hydrophobic parts of the protein. Tm shifts upon binding of a small molecule are correlated with the binding affinity of this small molecule. As target protein, Human STING (hSTING, UNIPROT entry Q86WV6, residues 155-341, MW: 21578.4 Da; protein stock solution: c=1302 μM stock solution in 20 mM Tris, 100 mM NaCl, 2 mM TCEP pH 8.8) was used, as assay buffer 20 mM Tris, 150 mM NaCl pH7.5 was added where and as necessary.
Final concentrations of components in assay: 100 μM test compounds, 5 μM target protein, “5×” SYPR Orange (from stock solution SYPRO orange solution in DMSO (invitrogen cat.-no. 56650-500ul), concentration “5000×”)
Assay Procedure: • 1) Dilutions of compound stock solutions (10 mM in DMSO) were prepared in assay buffer (20 mM Tris, 150 mM NaCl; pH7.5) • 2) 5 μl fluorescent dye stock solution (5000×SYPRO Orange in DMSO) was mixed with 19 μl target protein (1302 μM) and 976 μl assay buffer. • 3) 2 μl of this protein-dye-mixture (25×SYPRO Orange and 25 μM Protein) was added to 8 μl diluted compound solution as prepared in step 1. Final volume was 10 μl. • 4) With every 20 compounds, two negative controls were measured. • 5) The plates were prepared for duplicate measurement and centrifuged for 2 min at 1000 g. • 6) For the measurement, a CFX384 Real-Time System (Bio-Rad) was used. The run consisted of 140 cycles with 0.5° C./cycle (temperature ramp 15 s/cycle, 25° C. to 95° C.).
Data analysis: The melting curves were processed in Bio-Rad CFX Manager. Peak type was set to “negative”. Two replicates of TM (melting temperature) measurements were averaged and the standard deviation was calculated.
In general terms: DSF heats the sample and reads unfolding from a dye or from intrinsic fluorescence.

A further series concerns the target T1, human STING variant HAQ (Homo sapiens, UniProt Q86WV6, G230A/H232R/R293Q/R71H).
T1 construct: expressed in transfected cells; host or cells: THP1-Blue ISG: either parental cells (endogenous HAQ) or hSTING KO clone retrovirally transduced with HAQ
Description: THP1-Blue ISG IRF-inducible SEAP reporter assay, STING HAQ-variant. The class given is cell-based. The note with it: THP1-Blue ISG cells expressing STING HAQ (parental or re-introduced); 24 hours incubation; SEAP OD 620 nm. From the text:
(§1) Activation of the STING protein expressed in cell lines results in an increase of interferon production. By the stable integration of an interferon regulatory factor (IRF)-inducible SEAP gene (secreted embryonic alkaline phosphatase) reporter construct the functional interferon signaling pathway can be monitored. Using Invivogen's THP1-Blue™ ISG colorimetric enzyme assay and a suitable optical density (OD) reader the activity of SEAP can be detected and quantified. This technique could be used to characterize pharmacological modification of the STING pathway.
(§2) Several single nucleotide polymorphisms have been identified in the human STING gene. To determine the activity of the above described compounds, THP1-Blue™ ISG reporter cell lines expressing the different human STING variants have been generated. To do so, the endogenous human STING was first deleted using the CRISPR/CAS9 system: THP1-Blue ISG cells were electroporated with ALL-IN-ONE CRISPR plasmids targeting the STING gene (purchased from Sigma encoding the gRNA and GFP as a reporter gene for successful transduction). GFP positive cells then were sorted 24 h post transfection and expanded. Cells were then dispersed in semisolid methocel medium to allow single cell clone isolations. Clones were then screened for cGAMP responsiveness using the Quanti-Blue™ reporter assay. Non-responsive clones were subsequently analysed for STING loss by western blotting and sequencing of the STING locus.
(§3) For the overexpression of the human STING variants, a confirmed THP1-Blue™ ISG hSTING KO clone was transduced with individual retroviral plasmids (MSCV-ires-GFP-Blasti) encoding the allelic variants of hSTING (WT (H232R), HAQ, R232H, AQ and R293Q). Transduced cells were sorted for different levels of GFP fluorescence and STING allele expression was analysed by western blot.
(§4) Measurements of SEAP activity were performed in THP1-Blue™ ISG cells stably expressing the different human STING isoforms and the IRF-inducible SEAP reporter construct. Cells were cultivated in RPMI1640 medium with 10% fetal calf serum, 50 μg/ml Penicillin-Streptomycin, 100 μg/ml Zeocin, and 100 μg/ml Normocin in a 37°, 95% humidity and 5% CO2 incubator.
(§5) In preparation for the assay, the cells were distributed into the assay plates with a density of 10000 cells/15 μL per well. Compounds were prepared by an 8 point serial dilution in 50% aqueous DMSO and a final dilution step into medium to ensure a final DMSO concentration of 0.5% in the assay. 5 μL of diluted compounds were added to the plates, followed by a 24 hours incubation at 37° C.
(§6) At the day of the assay, 75 μl per well of Quanti-Blue™ reagent was added to all wells of the plate and the plate was incubated another 30 minutes at 37° C. The OD at 620 nm was measured on the EnVision reader (PerkinElmer).
Data of EC50 values on STING HAQ-variant can be found in table 2a. Shown data below were either derived from the parental THP1-Blue™ ISG cell lines (which express endogenously HAQ) or from genetically engineered THP1-Blue™ ISG cell lines in which first STING has been knocked-out and the HAQ specific STING isoform has been re-introduced as described above.
Background: A reporter such as luciferase makes a cellular process visible.

The target of series [2] is T2, human STING variant H232R (WT) (Homo sapiens, UniProt Q86WV6, H232R).
T2 construct: expressed in transfected cells; host or cells: THP1-Blue ISG hSTING KO clone, retroviral MSCV-ires-GFP-Blasti
Description: THP1-Blue ISG IRF-inducible SEAP reporter assay, STING H232R-variant. The class given is cell-based. Particulars: THP1-Blue ISG hSTING KO cells expressing STING H232R; 24 hours incubation.
Source text: as §1, §2, §3, §4, §5, §6

The target in series [3] is T3, human STING variant R232H (Homo sapiens, UniProt Q86WV6).
T3 construct: expressed in transfected cells; host or cells: THP1-Blue ISG hSTING KO clone, retroviral MSCV-ires-GFP-Blasti
In words: THP1-Blue ISG IRF-inducible SEAP reporter assay, STING R232H-variant. The class given is cell-based. The note with it: THP1-Blue ISG hSTING KO cells expressing STING R232H; 24 hours incubation.
Source text: as §1, §2, §3, §4, §5, §6

Series [4] deals with T4, human STING variant R293Q (Homo sapiens, UniProt Q86WV6, H232R/R293Q).
T4 construct: expressed in transfected cells; host or cells: THP1-Blue ISG hSTING KO clone, retroviral MSCV-ires-GFP-Blasti
In words: THP1-Blue ISG IRF-inducible SEAP reporter assay, STING R293Q-variant. The class given is cell-based. Particulars: THP1-Blue ISG hSTING KO cells expressing STING R293Q; 24 hours incubation.
Source text: as §1, §2, §3, §4, §5, §6

In another series the target is T5, human STING variant AQ (Homo sapiens, UniProt Q86WV6, G230A/H232R/R293Q).
T5 construct: expressed in transfected cells; host or cells: THP1-Blue ISG hSTING KO clone, retroviral MSCV-ires-GFP-Blasti
In words: THP1-Blue ISG IRF-inducible SEAP reporter assay, STING AQ-variant. The class given is cell-based. Particulars: THP1-Blue ISG hSTING KO cells expressing STING AQ; 24 hours incubation.
Source text: as §1, §2, §3, §4, §5, §6

A further series in a line: in vitro. The note with it: human, Caco-2, pH 7.4.

T5 sequence (Q86WV6 whole entry G230A/H232R/R293Q): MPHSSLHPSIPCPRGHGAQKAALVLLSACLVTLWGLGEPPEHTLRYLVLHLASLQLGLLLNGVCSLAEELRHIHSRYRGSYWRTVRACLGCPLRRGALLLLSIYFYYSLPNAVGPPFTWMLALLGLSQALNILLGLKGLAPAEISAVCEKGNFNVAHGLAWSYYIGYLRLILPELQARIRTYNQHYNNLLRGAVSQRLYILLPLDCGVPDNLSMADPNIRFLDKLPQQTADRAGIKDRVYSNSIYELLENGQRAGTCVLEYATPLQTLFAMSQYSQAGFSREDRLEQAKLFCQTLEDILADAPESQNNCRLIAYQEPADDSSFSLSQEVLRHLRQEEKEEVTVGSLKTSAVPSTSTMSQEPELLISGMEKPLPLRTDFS
T3 sequence (Q86WV6 whole entry, stated change not applied): as the sequence (Q86WV6 whole entry G230A/H232R/R293Q) above, with A230G, R232H, Q293R counted along it
T2 sequence (Q86WV6 whole entry H232R): as the sequence (Q86WV6 whole entry G230A/H232R/R293Q) above, with A230G, Q293R counted along it
T1 sequence (Q86WV6 whole entry R71H/G230A/H232R/R293Q): as the sequence (Q86WV6 whole entry G230A/H232R/R293Q) above, with R71H counted along it
T4 sequence (Q86WV6 whole entry H232R/R293Q): as the sequence (Q86WV6 whole entry G230A/H232R/R293Q) above, with A230G counted along it
Description for in vitro: Caco-2 cells were obtained from Leibniz Institute DSMZ-German Collection of Microorganisms and Cell Cultures (Braunschweig, Germany) and cultured in DMEM (Dulbecco's modified Eagle medium) containing (in final concentrations) 10% FCS (fetal calf serum), 1% NEAA (non-essential amino acids), 2 mM Glutamin, 100 U/mL Penicillin and 100 μg/mL Streptomycin. Caco-2 cells were seeded either onto 24-well Transwell inserts (Corning, #3379) for bidirectional permeability assays at a density of 160,000 cells/cm^2 and cultured for 3 weeks, with media change on every second day.
For bidirectional permeability assays 10 mM DMSO stock solutions were diluted in transport buffer (final concentrations: 128.13 mM NaCl, 5.36 mM KCl, 1 mM MgSO4, 1.8 mM CaCl2, 4.17 mM NaHCO3, 1.19 mM Na2HPO4, 0.41 mM NaH2PO4, 15 mM 2-[4-(2-hydroxyethyl)piperazin-1-yl]ethanesulfonic acid (HEPES), 20 mM glucose, pH 7.4) containing 0.25% bovine serum albumin to a final concentration of 10 μM of the test compounds and added to the apical or basal compartment. Cells were incubated with the compounds for up to 2 h. Samples from the opposite compartment were taken at different timepoints.
Compound concentrations in the compartments were quantified using a RapidFire-based high-throughput HPLC/MS/MS system (high performance liquid chromatography/mass spectrometry; BioCius) that was customized to a fully automated and flexible platform, termed RIAS. In this modified setup, the sample was aspirated by a vacuum pump into a 10 μL sample loop for 250 ms and flushed onto a C4 cartridge (3.8 μL bed volume; BioCius) with the aqueous mobile phase (99.9% water, 0.09% formic acid, and 0.01% TFA; flow rate 1.5 mL/min). Prior to bioanalysis samples were spiked with internal standard solution and diluted with acetonitrile (ACN) for protein precipitation. Measurement was operated in multiplereaction monitoring (MRM) mode. Quantification was performed using external calibration. A solid-phase extraction step retained the analyte for 3000 ms while interfering matrix (e.g., buffer components) was removed. With a simple step gradient, the analyte was back-eluted from the cartridge for 3,000 ms with the organic mobile phase (99.9% acetonitrile/methanol [1:1, v:v], 0.09% formic acid, and 0.01% TFA) and flushed into the mass spectrometer at a flow rate of 1.25 mL/min. Afterwards, the cartridge was reequilibrated with the aqueous mobile phase for 500 ms (flow rate 1.5 mL/min). The RapidFire software and a customized control software were obtained from BioCius. QuickQuan 2.3, Xcalibur 2.0.7, and XDK 2.1.0.25 were used to operate the TSQ Vantage mass spectrometer (ThermoFisher, San Jose, CA) integrated to the RapidFire system. Mass spectral data-processing software QuickCalc 7.1.9 was purchased from ThermoFisher. The Master software for the RIAS was programmed in-house using LabVIEW (version 8.6.1; National Instruments, Austin, TX). Data analysis was performed in AssayExplorer 3.2 (Symyx, Sunnyvale, CA), and correlation plots were visualized in Spotfire version 2.2.0 (TIBCO, Palo Alto, CA).
Apparent permeability coefficients in the apical to basal direction (Papp,AB) and in the basal to apical direction (Papp,BA) and efflux ratios were calculated as follows:
Efflux ratio=Papp,BA/Papp,AB
where Q is the amount of compound recovered in the receiver compartment after the incubation time t, C0 the initial compound concentration given to the donor compartment, and s the surface area of the Transwell inserts. […] In addition, transepithelial electrical resistance (TEER) values are measured for each plate before the permeability assay, and total recovery in donor and receiver compartments was determined for each compound.

For `Cc1cc(F)cc2c(-c3cccc4nn(C)cc34)nn(-c3ccc(N4C[C@@H]5[C@H](C4)[C@H]5C(=O)O)nc3)c12` [compound 5, (1R,5S,6r)-3-(5-(5-fluoro-2′,7-dimethyl-1H,2′H-[3,4′-biindazol]-1-yl)pyridin-2-yl)-3-azabicyclo[3.1.0]hexane-6-carboxylic acid], the “TM (changes in TM, thermal shift)” value in series [1] came to 26 K. The concentration for a half-maximal effect (EC50) at human STING variant HAQ was 600 nM; in series [2], 600 nM; in series [3] it was 300 nM; in series [4], 600 nM; on human STING variant AQ it was 400 nM. Besides, the Papp A→B at 10 μM in “in vitro” turned out to be 8 ×10⁻⁶ cm/s. Moreover, the efflux ratio at 10 μM in “in vitro” was found to be 2.6.

Turning to `Cc1cc(F)cc2c(-c3cccc4nn(C)cc34)nn(-c3ccc(N4CCC(C(=O)O)CC4)nc3)c12` [compound 4, 1-(5-(5-Fluoro-2′,7-dimethyl-1H,2′H-[3,4′-biindazol]-1-yl)pyridin-2-yl)piperidine-4-carboxylic acid], the “TM (changes in TM, thermal shift)” value in series [1] was determined as 24 K. In addition, the half-maximal effective concentration (EC50) at human STING variant HAQ came out at 700 nM; in series [2] it was 300 nM; in series [3] it was 300 nM; in series [4], 500 nM; on human STING variant AQ, 300 nM. Also, in “in vitro”, the Papp A→B at 10 μM amounted to 19 ×10⁻⁶ cm/s. In addition, the efflux ratio at 10 μM in the series “in vitro” came out at 1.

As for `Cc1cc(F)cc2c(-c3cccc4nn(C)cc34)nn(-c3ccc(N4CCN(C=O)CC4)nc3)c12` [Example #3, 4-(5-(5-Fluoro-2′,7-dimethyl-1H,2′H-[3,4′-biindazol]-1-yl)pyridin-2-yl)piperazine-1-carbaldehyde], in series [1], the “TM (changes in TM, thermal shift)” value was 21 K. For the same compound, the concentration giving a half-maximal response (EC50) stood at 1900 nM at human STING variant HAQ; 600 nM in series [2]; 600 nM in series [3]; 1800 nM in series [4]; 1000 nM at human STING variant AQ. Further, in the series “in vitro”, the Papp A→B at 10 μM came out at 15 ×10⁻⁶ cm/s. Also, in “in vitro”, the efflux ratio at 10 μM was found to be 1.7.

As usually defined, the EC50 is the concentration at which the effect is half-maximal. For orientation: Papp A→B means how fast a substance crosses the layer from the apical side. What is called efflux ratio is a quotient of directional permeabilities that is used to spot active efflux.
